Experiments:
Format in all cases: in vivo
Bactrocera dorsalis = assay: B. dorsalis spatial deterrence, two-choice traps baited with guava juice; settings: tested individually
Experimental: In addition to CFA, a series of odd-numbered carbon fatty acids (C9:0 to C17:0) and fatty acid methyl esters were evaluated for the spatial deterrence to B. dorsalis that results in oviposition reduction. Table 3 below lists the fatty acid methyl esters tested for spatial repellency for Bactrocera dorsalis. […] FIG. 16A, FIG. 16C, FIG. 16E, FIG. 16G, FIG. 16I, FIG. 16K, FIG. 16M, FIG. 16O, FIG. 16Q, and FIG. 16S show the mean numbers (±SEM) of mated female B. dorsalis flies captured, and FIG. 16B, FIG. 16D, FIG. 16F, FIG. 16H, FIG. 16J, FIG. 16L, FIG. 16N, FIG. 16P, FIG. 16R, and FIG. 16T show the number of B. dorsalis eggs oviposited in traps baited with guava juice (control) and with guava juice plus one of the coconut fatty acid methyl ester compounds in two-choice bioassays. For each test, different letter on the bar indicate a significant difference by Tukey-Kramer tests at P<0.05, n=4.

[1] = system: Bactrocera dorsalis (OFF); assay: OFF two-choice cage oviposition bioassay on guava juice-infused agar; parameters: key to Activity (OFF oviposition group): Negative: “OFF negative” (i.e., oviposition reduced); Neutral: “OFF neutral” (i.e., no effect on oviposition); Positive: “OFF positive” (i.e., oviposition increased); settings: for effect on OFF oviposition vs control agar / OFF oviposition deterrence at lower dose: individual compound; for effect on OFF oviposition vs control agar / OFF oviposition increase vs control agar / OFF oviposition reduction vs control agar: 20 mg/agar; for Activity (OFF oviposition group): individual CFA component; for OFF oviposition increase vs control agar: ethanol control; for OFF oviposition reduction vs control agar: 3 days; for OFF oviposition deterrence at lower dose: 2 mg dose
Experimental: Evaluation of oviposition deterrence of CFA: OFF oviposition bioassays were conducted using laboratory two-choice cage experiments with guava juice-infused agar as an oviposition substrate. The agar plates were prepared by pouring 30 mL of boiled agar mixture [1000 mL distilled water, 500 mL guava juice (Deans Foods, El Paso, Texas, USA), 10 g agar, 0.6 g methylparaben, 6.7 mL 95% ethanol, and 3 mL acetic acid] into a 30 mL deli plastic cup to gel. The agar was then covered with a lid to avoid desiccation. The two-choice oviposition bioassay was conducted in screened cages using 20 mated OFF females per cage (12-18 day-old; Jang E B et al., 1997, “Attraction of female oriental fruit fly, Bactrocera dorsalis, to volatile semiochemicals from leaves and extracts of a non-host plant, Panax (Polyscias guilfoylei) in laboratory and olfactometer assays,” J. Chem. Ecol. 23:1389-1401) over 3 days. Each cage was provided with a ball of water-saturated cotton, sugar, and protein hydrolysate in separate 30 mL deli cups and two guava juice agar plates-one treated with CFA diluted in hexane and the other treated with the hexane control. The agar plates were surface-treated either with 200 μL of hexane or 200 μL of CFA in one of 4 doses tested (20, 2, 0.2, and 0.02 mg/200 μL of hexane), placed into a fume hood for 10 minutes prior to use in bioassays, and positioned upside-down (i.e., treated side down) on the center of the outside top of the screened cage 17 cm apart from each other (i.e., one each of control and CFA treated), allowing female flies to oviposit on guava juice agar from the bottom through the cage screen. After three days, OFF eggs in the guava agar were gently separated from the agar in water and the number of eggs were individually counted (up to 100 eggs) or estimated volumetrically at 1 mL OFF eggs=20,000 eggs (Stephanie Gayle personal communication). The experiment was replicated six times per treatment. Determination of bioactive oviposition deterrent components from CFA: A series of bioassays was conducted to identify key deterrent components of CFA for OFF using the same two-choice bioassay design described above. […] Ethanol was used as control and for preparing dilutions of C16:0 and C18:0. Hexane was used as control and for dilutions of the other six compounds tested. Based on the outcome of these bioassays, the eight free fatty acid components were assigned to “OFF negative” (i.e., oviposition reduced), “OFF neutral” (i.e., no effect on oviposition), and “OFF positive” (i.e., oviposition increased) compound groups. Using these groupings, four different blends were formulated (indicated in Table 1), composed at the equivalent ratios and concentrations of each component found in CFA (Zhu J J et al., 2018, supra), to determine key bioactive CFA components in terms of oviposition deterrence on OFF. The approach involved testing the bioactivity of the OFF negative-component blend (4c blend) for oviposition deterrence at three different doses (2, 0.2, and 0.02 mg CFA equivalent/agar), first comparing with hexane control, then with CFA at respective equivalent doses. As the 4c blend was not as effective as CFA, a “OFF negative+OFF neutral” component blend (6c blend) was then formulated, and its effect compared with CFA at 2 and 0.2 mg CFA equivalent/agar. Two subtraction blends with one of the two OFF neutral components removed from the 6c blend (5c-i and 5c-ii blends) were formulated and compared with the 6c blend at 2 and 0.2 mg CFA equivalent/agar. The experiment was replicated four to six times per treatment.

Drosophila suzukii (SWD) = assay: SWD laboratory two-choice oviposition bioassay on raspberries; parameters: key to Behavioral activity (SWD oviposition group): Negative: “SWD negative” compounds (i.e., SWD oviposition was reduced); Neutral: “SWD neutral” compounds (i.e., no effect on oviposition); settings: two-choice; for Behavioral activity (SWD oviposition group): individual CFA component; for effect on SWD oviposition vs control: individual compound, 20 mg dose
Experimental: Laboratory choice test 1 Oviposition bioassays were conducted at USDA-ARS in Hilo, Hawaii using a laboratory two-choice cage experimental set-up with organic raspberries purchased from a local grocery as an oviposition substrate. For all laboratory assays listed below, the receptacles of the raspberries were stuffed with cotton to prevent flies from ovipositing on the interior of the fruit as described previously in Cha D H et al. (2021, supra). The two-choice oviposition bioassay was conducted over 24 hours in screened cages (30 cm W×30 cm L×30 cm H; BugDorm-2120 Insect tent; shop.bugdorm.com) with 30 female and 10 male SWD (7-8 days old) released per cage. Each cage was provided with cotton moistened with water in a 20 mL deli cup and two 30 mL deli cups; one with two raspberries treated with CFA diluted in hexane and the other with two raspberries treated with hexane only. Each raspberry was surface-treated either with 200 μL of hexane or 200 μL of CFA in one of three doses (20, 2, or 0.2 mg CFA/200 μL hexane), placed into a fume hood for 10 minutes or until used in the bioassay. The deli cups with the treated berries were positioned in the center of the floor of the screened cage, 17 cm apart from each other. Female flies were allowed to oviposit on the surface of raspberries for 24 hours. At the conclusion of the bioassay, each 30 mL deli cup containing two raspberries was moved into a 600 mL deli cup with a mesh cap, held for 8 days (22.1±1.9° C., 71.7±3.1% RH, 16:8 L:D), when the number of larvae and pupae were counted. The experiment was replicated four times per treatment. Laboratory choice test 2 A series of bioassays were conducted in Hilo, Hawaii to identify key bioactive deterrent components of CFA for SWD using the same two-choice bioassay described above. […] Due to solubility differences, ethanol was used as control and for dilution of C16:0 and C18:0, while hexane was used as control and for dilution of the other six compounds tested. Based on the outcome of these bioassays, the eight free fatty acid components of CFA were grouped into two groups; “SWD negative” compounds (i.e., SWD oviposition was reduced) and “SWD neutral” compounds (i.e., no effect on oviposition), and tested whether the blend of “SWD negative” compounds had the same oviposition deterrence as the CFA at their equivalent concentrations as in CFA (see Table 2). The oviposition deterrence of the blend of “SWD negative” compounds was first compared to hexane at three different doses (20, 2 and 0.2 mg CFA equivalent/raspberry) and subsequently compared to CFA at 2 mg equivalent dose.

Zeugodacus cucurbitae = assay: Z. cucurbitae two-choice oviposition bioassay on pumpkin juice-infused agar; parameters: key to Behavioral activity (Z. cucurbitae oviposition group): Negative: “negative” (i.e., oviposition reduced); Neutral: “neutral” (i.e., no effect on oviposition); Positive: “positive” (i.e., oviposition increased); settings: for Z. cucurbitae oviposition increase vs ethanol control agar: 24 hours; for Behavioral activity (Z. cucurbitae oviposition group): individual CFFA component; for Z. cucurbitae oviposition reduction vs control agar: individual compound
Experimental: Oviposition bioassays were conducted with mated female flies, using pumpkin juice-infused agar as an oviposition substrate. A small petri dish (60×15 mm) filled with 10 mL of 1% agar mixed in pumpkin juice was used as an oviposition substrate. The agar plates were surface-treated either with 200 μL of ethanol or 200 μL of CFFA in one of 4 doses tested (20, 2, 0.2, and 0.02 mg/200 μL of ethanol), placed into a fume hood for 10 minutes for solvent evaporation prior to use in bioassays, and positioned upside-down (i.e. treated side down) on top of the 30×30×30 cm (W×L×H) screened cage 17 cm apart from each other (i.e. one each of control and CFFA treated), allowing 20 female flies (14 to 18 day-old) to oviposit on pumpkin juice agar from the bottom through the cage screen for 24 hours. Each cage was provided with a ball of water-saturated cotton, sugar, and protein hydrolysate in separate 30 mL deli cups and two oviposition substrates-one treated with CFFA diluted in ethanol and the other treated with the ethanol control. After 24 hours, Z. cucurbitae eggs in the pumpkin agar were gently separated from the agar in water and the number of eggs were individually counted. The experiment was replicated five times per treatment. CFFA was not an effective oviposition deterrent for Z. cucurbitae which is contrary to our previous work on B. dorsalis (Roh et al., 2023a). […] CFFA components were categorized into three groups “negative” (i.e., oviposition reduced), “neutral” (i.e., no effect on oviposition), and “positive” (i.e., oviposition increased) based on bioassay outcome. Using these categories, further formulations were made to determine key bioactive CFFA components in terms of oviposition deterrence on Z. cucurbitae at the equivalent ratios and concentrations of each component found in CFFA (Zhu et al. 2018). The approach involved testing the bioactivity of the negative-component blend (4c blend) for oviposition deterrence at three different doses (2, 0.2, and 0.02 mg CFFA equivalent/agar), compared with ethanol control. Further, neutral compound is added to the negative blend i.e., ‘negative+neutral’ component blend (5c blend) to identify key compounds for oviposition deterrence. The experiment was replicated five times per treatment.

In the case of `CCCCCCCCC(=O)OC` [C9:0 ME, Methyl pelargonate], the “effect on female B. dorsalis attraction and oviposition to host fruit odors” value (“effect … to host fruit odors” for short) (Bactrocera dorsalis) is reported as “significantly reduced”.

`CCCCCCCCCCC(=O)OC` [C11:0 ME, Methyl undecanoate] was tested, and the “effect … to host fruit odors” value (Bactrocera dorsalis) was “significantly reduced”.

For `CCCCCCCCCCC(=O)O` [C11:0, Undecylic acid], the “effect on OFF oviposition vs control agar” value (shortened to “effect … vs control agar”) [1] was “significantly reduced”.

With `CCCCCCCCCCCC(=O)O` [C12:0, lauric acid] the “Activity (OFF oviposition group)” value [1] was “Neutral”, the “effect … vs control agar” value [1] was “did not affect OFF oviposition” and the “Behavioral activity (SWD oviposition group)” value (Drosophila suzukii (SWD)) was “Neutral”. For the same compound, the “effect on SWD oviposition vs control” value (Drosophila suzukii (SWD)) was “did not increase or decrease SWD oviposition”, the “Z. cucurbitae oviposition increase vs ethanol control agar” value (“Z. cucurbitae oviposition increase” below) (Zeugodacus cucurbitae; 20 mg dose) was 86.4% and the “Behavioral activity (Z. cucurbitae oviposition group)” value (Zeugodacus cucurbitae) was “Positive”.

In the case of `CCCCCCCCCCCCC(=O)OC` [C13:0 ME, Methyl tridecanoate], the “effect … to host fruit odors” value (Bactrocera dorsalis) is reported as “significantly reduced”.

With `CCCCCCCCCCCCCC(=O)O` [C14:0, myristic acid] the “Activity (OFF oviposition group)” value [1] was “Neutral”, the “effect … vs control agar” value [1] was “did not affect OFF oviposition” and the “Behavioral activity (SWD oviposition group)” value (Drosophila suzukii (SWD)) was “Neutral”. For the same compound, the “effect on SWD oviposition vs control” value (Drosophila suzukii (SWD)) was “did not increase or decrease SWD oviposition”, the “Z. cucurbitae oviposition increase” value (Zeugodacus cucurbitae; 20 mg dose) was 77.7% and the “Behavioral activity (Z. cucurbitae oviposition group)” value (Zeugodacus cucurbitae) was “Positive”.

With `CCCCCCCCCCCCCCC(=O)OC` [C15:0 ME, Methyl pentadecanoate] the “effect … to host fruit odors” value (Bactrocera dorsalis) was “significantly reduced”.

In the case of `CCCCCCCCCCCCCCCC(=O)O` [C16:0, palmitic acid], the “OFF oviposition increase vs control agar” value [1] is reported as 60%, the “Activity (OFF oviposition group)” value [1] is reported as “Positive” and the “Behavioral activity (SWD oviposition group)” value (Drosophila suzukii (SWD)) is reported as “Neutral”. For the same compound, the “effect on SWD oviposition vs control” value (Drosophila suzukii (SWD)) was “did not increase or decrease SWD oviposition”, the “Z. cucurbitae oviposition increase” value (Zeugodacus cucurbitae; 20 mg dose) was 67.3% and the “Behavioral activity (Z. cucurbitae oviposition group)” value (Zeugodacus cucurbitae) was “Positive”.

In the case of `CCCCCCCCCCCCCCCCCC(=O)O` [C18:0, stearic acid], the “OFF oviposition increase vs control agar” value [1] is reported as 29%, the “Activity (OFF oviposition group)” value [1] is reported as “Positive” and the “Behavioral activity (SWD oviposition group)” value (Drosophila suzukii (SWD)) is reported as “Neutral”. For the same compound, the “effect on SWD oviposition vs control” value (Drosophila suzukii (SWD)) was “did not increase or decrease SWD oviposition”, the “effect on Z. cucurbitae oviposition” value (Zeugodacus cucurbitae; 20 mg dose) was “did not affect oviposition” and the “Behavioral activity (Z. cucurbitae oviposition group)” value (Zeugodacus cucurbitae) was “Neutral”.

With `CCCCCCCC/C=C\CCCCCCCC(=O)O` [C18:1, oleic acid] the “OFF oviposition reduction vs control agar” value [1] was 100%, the “Activity (OFF oviposition group)” value [1] was “Negative” and the “OFF oviposition deterrence at lower dose” value [1] was “maintained OFF oviposition deterrence”. For the same compound, the “Behavioral activity (SWD oviposition group)” value (Drosophila suzukii (SWD)) was “Neutral”, the “effect on SWD oviposition vs control” value (Drosophila suzukii (SWD)) was “did not increase or decrease SWD oviposition” and the “effect on Z. cucurbitae oviposition” value (Zeugodacus cucurbitae; 2 mg dose) was “either lost oviposition deterrence or increased oviposition”. For the same compound, the “Behavioral activity (Z. cucurbitae oviposition group)” value (Zeugodacus cucurbitae) was “Negative” and the “Z. cucurbitae oviposition reduction vs control agar” value (Zeugodacus cucurbitae; 20 mg dose) was 98.1%.

With `CCCCC/C=C\C/C=C\CCCCCCCC(=O)O` [C18:2, linoleic acid] the “OFF oviposition reduction vs control agar” value [1] was 99%, the “Activity (OFF oviposition group)” value [1] was “Negative” and the “OFF oviposition deterrence at lower dose” value [1] was “maintained OFF oviposition deterrence”. The “Behavioral activity (SWD oviposition group)” value (Drosophila suzukii (SWD)) was “Neutral”, the “effect on SWD oviposition vs control” value (Drosophila suzukii (SWD)) was “did not increase or decrease SWD oviposition” and the “effect on Z. cucurbitae oviposition” value (Zeugodacus cucurbitae; 2 mg dose) was “either lost oviposition deterrence or increased oviposition”. For the same compound, the “Behavioral activity (Z. cucurbitae oviposition group)” value (Zeugodacus cucurbitae) was “Negative” and the “Z. cucurbitae oviposition reduction vs control agar” value (Zeugodacus cucurbitae; 20 mg dose) was 96.4%.
